Measured values as given in patent publication US20160355530A1, “HEPATITIS C INHIBITORS AND USES THEREOF” (AbbVie Inc., priority 2010, published 2016).
Where two headings read alike, the source gives them in different places.

Tests used:
[1] = tested on: chimeric replicon with genotype 4a NS5B; assay: microbe, parasite or virus in culture; assay type: cell-based, HCV genotype 4a; details: Hepatitis C virus, read-out: 4a chimera 5% FBS EC50
[2] = tested on: chimeric replicon with genotype 2b NS5B; assay: microbe, parasite or virus in culture; assay type: cell-based, HCV genotype 2b; details: Hepatitis C virus, read-out: 2b chimera 5% FBS EC50
[3] = tested on: chimeric replicon with 2a-J6CF-derived NS5B; assay: microbe, parasite or virus in culture; assay type: cell-based, HCV genotype 2a; details: Hepatitis C virus, read-out: 2a chimera 5% FBS EC50
[4] = tested on: HCV 1b-BB7 subgenomic replicon; assay: microbe, parasite or virus in culture; assay type: cell-based, HCV genotype 1b; details: Hepatitis C virus, stable replicon
[5] = tested on: HCV 1a-H77 subgenomic replicon; assay: microbe, parasite or virus in culture; assay type: cell-based, HCV genotype 1a; details: Hepatitis C virus, stable replicon
[6] = molecular target: T1, HCV NS5B polymerase 1b BK strain (Hepatitis C virus genotype 1b, UniProt P26663); assay: HCV NS5B polymerase enzymatic inhibition assay, strain 1b BK; assay type: biochemical
T1 construct: six-histidine tag; made in house; host or cells: E. coli
T1 sequence (P26663 2420-2989): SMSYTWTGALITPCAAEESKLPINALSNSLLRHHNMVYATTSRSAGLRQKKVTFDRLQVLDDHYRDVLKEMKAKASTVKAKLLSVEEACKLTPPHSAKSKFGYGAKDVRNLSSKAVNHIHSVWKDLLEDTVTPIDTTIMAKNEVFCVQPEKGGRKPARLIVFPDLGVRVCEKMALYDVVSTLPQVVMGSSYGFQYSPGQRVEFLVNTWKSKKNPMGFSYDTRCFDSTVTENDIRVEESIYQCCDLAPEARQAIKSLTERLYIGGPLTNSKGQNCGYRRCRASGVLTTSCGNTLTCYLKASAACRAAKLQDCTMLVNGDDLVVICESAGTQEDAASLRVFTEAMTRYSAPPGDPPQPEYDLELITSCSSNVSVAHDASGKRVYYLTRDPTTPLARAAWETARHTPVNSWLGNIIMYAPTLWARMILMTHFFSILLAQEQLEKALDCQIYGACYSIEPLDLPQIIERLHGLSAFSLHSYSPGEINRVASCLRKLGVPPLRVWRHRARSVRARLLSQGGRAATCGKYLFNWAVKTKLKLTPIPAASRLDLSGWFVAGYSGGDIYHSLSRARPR
Summary of the method: (§1)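 Recombinant NS5B (residues 1–570, His-tagged, E. coli-expressed) copied 5 nM of a 2.1 kb HCV 1b negative-strand 3′-end RNA template with 20 μM CTP, 20 μM ATP and 0.284 μM [3H]UTP for 3 h at 30 °C. Spermine-precipitated RNA was filter-captured and counted, and IC50 was fitted by nonlinear regression.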

[7] = tested on: chimeric replicon with genotype 3a NS5B; assay: microbe, parasite or virus in culture; assay type: cell-based, HCV genotype 3a; details: Hepatitis C virus, read-out: 3a chimera 5% FBS EC50
[8] = molecular target: T2, HCV NS5B polymerase 1a-H77-C316Y (Hepatitis C virus genotype 1a, UniProt P27958, C2736Y); assay: biochemical; parameters: species or system HCV genotype 1a
T2 construct: six-histidine tag; made in house; host or cells: E. coli
T2 sequence (P27958 2421-2990 C2736Y): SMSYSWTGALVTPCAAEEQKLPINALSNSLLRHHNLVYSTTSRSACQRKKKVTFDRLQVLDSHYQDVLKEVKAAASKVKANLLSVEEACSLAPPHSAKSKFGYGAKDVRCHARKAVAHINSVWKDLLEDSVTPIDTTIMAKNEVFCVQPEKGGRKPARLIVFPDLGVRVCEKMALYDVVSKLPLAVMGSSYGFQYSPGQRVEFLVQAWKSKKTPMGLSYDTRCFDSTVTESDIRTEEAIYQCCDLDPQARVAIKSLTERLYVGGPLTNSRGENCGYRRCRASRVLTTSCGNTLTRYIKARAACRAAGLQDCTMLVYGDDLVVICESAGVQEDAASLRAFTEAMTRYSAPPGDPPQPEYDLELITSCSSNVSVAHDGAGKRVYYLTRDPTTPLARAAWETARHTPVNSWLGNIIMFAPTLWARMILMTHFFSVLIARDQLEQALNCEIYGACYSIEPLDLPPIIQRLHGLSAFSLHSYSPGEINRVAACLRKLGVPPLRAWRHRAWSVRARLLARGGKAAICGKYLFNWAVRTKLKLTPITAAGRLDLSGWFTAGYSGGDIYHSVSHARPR
Summary of the method: as §1

[9] = molecular target: T3, HCV NS5B polymerase 1a-H77 (Hepatitis C virus genotype 1a, UniProt P27958); assay: biochemical; parameters: species or system HCV genotype 1a
T3 construct: six-histidine tag; made in house; host or cells: E. coli
T3 sequence (P27958 2421-2990): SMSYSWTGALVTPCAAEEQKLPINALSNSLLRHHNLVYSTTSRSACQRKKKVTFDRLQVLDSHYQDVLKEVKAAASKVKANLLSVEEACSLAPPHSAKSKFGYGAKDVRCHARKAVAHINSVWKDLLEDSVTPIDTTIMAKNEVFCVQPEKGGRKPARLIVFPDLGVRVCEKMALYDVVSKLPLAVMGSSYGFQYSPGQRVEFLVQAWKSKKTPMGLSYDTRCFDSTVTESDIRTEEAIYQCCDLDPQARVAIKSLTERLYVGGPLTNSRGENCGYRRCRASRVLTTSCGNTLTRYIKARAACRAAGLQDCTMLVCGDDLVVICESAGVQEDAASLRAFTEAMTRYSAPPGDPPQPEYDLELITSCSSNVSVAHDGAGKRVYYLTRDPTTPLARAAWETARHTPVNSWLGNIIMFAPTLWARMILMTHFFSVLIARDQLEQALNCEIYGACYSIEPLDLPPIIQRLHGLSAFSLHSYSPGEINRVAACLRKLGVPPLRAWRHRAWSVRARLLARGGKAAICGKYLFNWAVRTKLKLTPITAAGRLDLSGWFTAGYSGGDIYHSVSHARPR
Summary of the method: as §1

[10] = tested on: HCV NS5B polymerase 1a-H77-C316Y; assay: biochemical; parameters: species or system HCV genotype 1a; details: ratio of enzyme IC50s, 1a H77-C316Y / 1a H77
Summary of the method: as §1

[11] = strain 1b BB7, 5% FBS + 40% human plasma, read-out: 1b BB7 5% FBS + 40% Human Plasma EC50
[12] = strain 1b BB7, 5% FBS, no human plasma, read-out: 1b BB7 5% FBS EC50
[13] = strain 1b BB7, 5% FBS, read-out: 1b BB7 5% FBS EC50
[14] = 5% FBS, absence of human plasma, read-out: Stable Replicon 1a H77 5% FBS EC50
[15] = strain 1a H77, 5% FBS + 40% human plasma, read-out: 1a H77 5% FBS + 40% Human Plasma EC50
[16] = strain 1a H77, 5% FBS, no human plasma, read-out: 1a H77 5% FBS EC50
[17] = strain 1a H77, 5% FBS, read-out: 1a H77 5% FBS EC50
[18] = enzyme, strain 1b BK, read-out: HCV Polymerase Strain 1b BK IC50
[19] = enzyme, strain 1a H77, read-out: HCV Polymerase Strain 1a H77 IC50

CS(=O)(=O)N(Cc1cnc(-c2ccc3[nH]ccc3c2)s1)c1ccc2c(-c3ncc[nH]3)c(-c3ccccc3)oc2c1 [Example 23, N-[3-(1H-imidazol-2-yl)-2-phenyl-1-benzofuran-6-yl]-N-{[2-(1H-indol-5-yl)-1,3-thiazol-5-yl]methyl}methanesulfonamide]
EC50 [1]: 313 nM | EC50 [2]: 281 nM | EC50 [3]: 41.6 nM | EC50 [4, 11]: 9240 nM | EC50 [4, 12]: 26.4 nM | EC50 [4, 13]: 26.4 nM | EC50 [5, 14]: 230 nM | EC50 [5, 15]: 10000 nM | EC50 [5, 16]: 230 nM | EC50 [5, 17]: 230 nM | IC50 [6, 18]: 10 nM | EC50 [7]: 17.3 nM | IC50 [8]: 27 nM | IC50 [9, 19]: 3.9 nM | C316Y/1a Fold Resistance [10]: 7 fold

C[S+]([O-])c1ccc(-c2ncc(CN(c3ccc4c(-c5ncc[nH]5)c(-c5ccccc5)oc4c3)S(C)(=O)=O)s2)cc1 (stereo not shown) [Example 24, N-[3-(1H-imidazol-2-yl)-2-phenyl-1-benzofuran-6-yl]-N-({2-[4-(methylsulfinyl)phenyl]-1,3-thiazol-5-yl}methyl)methanesulfonamide]
EC50 [1]: 362 nM | EC50 [2]: 193 nM | EC50 [3]: 206 nM | EC50 [4, 11]: 3850 nM | EC50 [4, 12]: 12.4 nM | EC50 [4, 13]: 12.4 nM | EC50 [5, 14]: 157 nM | EC50 [5, 15]: 10000 nM | EC50 [5, 16]: 157 nM | EC50 [5, 17]: 157 nM | IC50 [6, 18]: 18 nM | EC50 [7]: 5.4 nM | IC50 [8]: 36 nM | IC50 [9, 19]: 6.9 nM | C316Y/1a Fold Resistance [10]: 5 fold

Cn1ccc2cc(-c3ncc(CN(c4ccc5c(-c6ncc[nH]6)c(-c6ccccc6)oc5c4)S(C)(=O)=O)s3)ccc21 [Example 25, N-[3-(1H-imidazol-2-yl)-2-phenyl-1-benzofuran-6-yl]-N-{[2-(1-methyl-1H-indol-5-yl)-1,3-thiazol-5-yl]methyl}methanesulfonamide]
EC50 [1]: 452 nM | EC50 [2]: 382 nM | EC50 [3]: 108 nM | EC50 [4, 11]: 10000 nM | EC50 [4, 12]: 8.2 nM | EC50 [4, 13]: 8.2 nM | EC50 [5, 14]: 266 nM | EC50 [5, 15]: 10000 nM | EC50 [5, 16]: 266 nM | EC50 [5, 17]: 266 nM | IC50 [6, 18]: 15 nM | EC50 [7]: 10.7 nM | IC50 [8]: 43 nM | IC50 [9, 19]: 6.3 nM | C316Y/1a Fold Resistance [10]: 7 fold

Cn1cc(-c2ncc(CN(c3ccc4c(-c5ncc[nH]5)c(-c5ccccc5)oc4c3)S(C)(=O)=O)s2)cn1 [Example 26, N-[3-(1H-imidazol-2-yl)-2-phenyl-1-benzofuran-6-yl]-N-{[2-(1-methyl-1H-pyrazol-4-yl)-1,3-thiazol-5-yl]methyl}methanesulfonamide]
EC50 [1]: 377 nM | EC50 [2]: 497 nM | EC50 [3]: 277 nM | EC50 [4, 11]: 5450 nM | EC50 [4, 12]: 15 nM | EC50 [4, 13]: 15 nM | EC50 [5, 14]: 343 nM | EC50 [5, 15]: 10000 nM | EC50 [5, 16]: 343 nM | EC50 [5, 17]: 343 nM | IC50 [6, 18]: 10 nM | EC50 [7]: 5.2 nM | IC50 [8]: 30 nM | IC50 [9, 19]: 12 nM | C316Y/1a Fold Resistance [10]: 3 fold

CS(=O)(=O)N(Cc1cnc(-c2cccc(CO)c2)s1)c1ccc2c(-c3ncc[nH]3)c(-c3ccccc3)oc2c1 [Example 28, N-({2-[3-(hydroxymethyl)phenyl]-1,3-thiazol-5-yl}methyl)-N-[3-(1H-imidazol-2-yl)-2-phenyl-1-benzofuran-6-yl]methanesulfonamide]
EC50 [1]: 378 nM | EC50 [2]: 561 nM | EC50 [3]: 234 nM | EC50 [4, 11]: 10000 nM | EC50 [4, 12]: 24.1 nM | EC50 [4, 13]: 24.1 nM | EC50 [5, 14]: 405 nM | EC50 [5, 15]: 10000 nM | EC50 [5, 16]: 405 nM | EC50 [5, 17]: 405 nM | IC50 [6, 18]: 12 nM | EC50 [7]: 14.3 nM | IC50 [8]: 28 nM | IC50 [9, 19]: 5.9 nM | C316Y/1a Fold Resistance [10]: 5 fold

Cn1cnc2ccc(-c3ncc(CN(c4ccc5c(-c6ncc[nH]6)c(-c6ccccc6)oc5c4)S(C)(=O)=O)s3)cc21 [Example 30, N-[3-(1H-imidazol-2-yl)-2-phenyl-1-benzofuran-6-yl]-N-{[2-(1-methyl-1H-benzimidazol-6-yl)-1,3-thiazol-5-yl]methyl}methanesulfonamide]
EC50 [1]: 150 nM | EC50 [2]: 109 nM | EC50 [3]: 40.7 nM | EC50 [4, 11]: 1320 nM | EC50 [4, 12]: 4 nM | EC50 [4, 13]: 4 nM | EC50 [5, 14]: 108 nM | EC50 [5, 15]: 10000 nM | EC50 [5, 16]: 108 nM | EC50 [5, 17]: 108 nM | IC50 [6, 18]: 12 nM | EC50 [7]: 2.8 nM | IC50 [8]: 19 nM | IC50 [9, 19]: 5 nM | C316Y/1a Fold Resistance [10]: 4 fold

CS(=O)(=O)N(CCCOc1ccccc1)c1cc2oc(-c3ccc(F)cc3)c(-c3ncc[nH]3)c2cc1C1CC1 [Example 37, N-[5-cyclopropyl-2-(4-fluorophenyl)-3-(1H-imidazol-2-yl)-1-benzofuran-6-yl]-N-(3-phenoxypropyl)methanesulfonamide]
EC50 [1]: 598 nM | EC50 [2]: 751 nM | EC50 [3]: 522 nM | EC50 [4, 11]: 529 nM | EC50 [4, 12]: 145 nM | EC50 [4, 13]: 145 nM | EC50 [5, 14]: 348 nM | EC50 [5, 15]: 1390 nM | EC50 [5, 16]: 348 nM | EC50 [5, 17]: 348 nM | IC50 [6, 18]: 24 nM | EC50 [7]: 166 nM | IC50 [8]: 144 nM | IC50 [9, 19]: 5.5 nM | C316Y/1a Fold Resistance [10]: 26 fold

CS(=O)(=O)N(CCCN1CCCCC1)c1cc2oc(-c3ccc(F)cc3)c(C3=NOCCN3)c2cc1C1CC1 [Example 130, N-[5-cyclopropyl-3-(5,6-dihydro-4H-1,2,4-oxadiazin-3-yl)-2-(4-fluorophenyl)-1-benzofuran-6-yl]-N-[3-(piperidin-1-yl)propyl]methanesulfonamide]
EC50 [1]: 416 nM | EC50 [3]: 74 nM | EC50 [4, 11]: 110 nM | EC50 [4, 12]: 26 nM | EC50 [4, 13]: 26 nM | EC50 [5, 14]: 44.2 nM | EC50 [5, 15]: 296 nM | EC50 [5, 16]: 44.2 nM | EC50 [5, 17]: 44.2 nM | IC50 [6, 18]: 229 nM | EC50 [7]: 42.6 nM | IC50 [8]: 412 nM | IC50 [9, 19]: 20.5 nM | C316Y/1a Fold Resistance [10]: 20 fold

COc1ccc(CN(c2cc3oc(-c4ccc(F)cc4)c(-c4ncc(C)[nH]4)c3cc2C2CC2)S(C)(=O)=O)cc1 [Example 188, N-[5-cyclopropyl-2-(4-fluorophenyl)-3-(5-methyl-1H-imidazol-2-yl)-1-benzofuran-6-yl]-N-(4-methoxybenzyl)methanesulfonamide]
EC50 [4, 11]: 2030 nM | EC50 [4, 12]: 208 nM | EC50 [4, 13]: 208 nM | EC50 [5, 14]: 399 nM | EC50 [5, 15]: 8460 nM | EC50 [5, 16]: 399 nM | EC50 [5, 17]: 399 nM | IC50 [6, 18]: 55 nM | IC50 [8]: 224 nM | IC50 [9, 19]: 15.4 nM | C316Y/1a Fold Resistance [10]: 15 fold

CS(=O)(=O)N(Cc1cc(O)no1)c1cc2oc(-c3ccc(F)cc3)c(-c3ncc[nH]3)c2cc1C1CC1 [Example 190, N-[5-cyclopropyl-2-(4-fluorophenyl)-3-(1H-imidazol-2-yl)-1-benzofuran-6-yl]-N-[(3-hydroxy-1,2-oxazol-5-yl)methyl]methanesulfonamide]
EC50 [4, 11]: 1370 nM | EC50 [4, 13]: 116 nM | EC50 [5, 14]: 263 nM | EC50 [5, 15]: 3460 nM | EC50 [5, 17]: 263 nM | IC50 [6]: 26 nM | IC50 [8]: 500 nM | IC50 [9]: 4.5 nM | C316Y/1a Fold Resistance [10]: 112 fold
